According to patent US20250243172A1, “NLRP3 INFLAMMASOME INHIBITORS AND COMPOSITIONS AND USES THEREOF” (VIRGINIA COMMONWEALTH UNIVERSITY, priority 2022, published 2025):

Molecular target: human recombinant NLRP3 protein
Experiment: Binding of NSIs to recombinant NLRP3 protein by microscale thermophoresis (Monolith NT.Automated)
Conditions: MST; His-NLRP3 labeled with RED-tris-NTA dye, 40 min incubation in PBS-T; duplicate reads
Experimental: Monolith NT. Automated instrument was used to measure the Kd value. A range of concentrations of NSIs were incubated and His-NLRP3 pre-labeled with RED-tris-NTA dye kit (SKU: MO-L018) for 40 min in PBS-T assay buffer (1×PBS with 0.05% Tween® 20). The samples were loaded into NanoTemper® glass capillaries and series of ligand-induced changes in thermophoresis curves were gained using an Excitation power of 80% and a MST power of high. Kd values were calculated using the mass action equation with NanoTemper software from duplicate reads of an experiment.
Table 1 provides exemplary binding affinities of NSIs to human recombinant NLRP3 protein.

Row | SMILES | Kd [nM]
1 | COc1ccc(Cl)cc1Cn1cc(-c2ccc(C(=O)N3CCC3)cc2)nn1 [YM-III-11] | 3000
2 | COc1ccc(Cl)cc1Cn1cc(C(=O)N2CC(F)(F)C2)nn1 [YM-III-12] | 980
